Counter-ions that a name gives are not always drawn.
molecular target: T1, human Cav2.2 α (α1B) subunit, along with the human β3 and α2δ1 auxiliary subunits (Homo sapiens, UniProt Q00975); assay: hCav2.2 assay, IonWorks planar array electrophysiology in stable HEK293 cell line; type: cell-based; conditions: inhibition by 50% of current elicited by the 1st depolarising pulse; HEK293 cells; read-out: tonic pIC50 (converted)
T1 construct: expressed in transfected cells
Procedure: Compounds as defined in the first or second aspect may be tested for in vitro biological activity in the hCav2.2 assay in accordance with the following studies:
Stable cell lines expressing the human Cav2.2 α (α1B) subunit, along with the human β3 and α2δ1 auxiliary subunits were created following sequential transfection and selection of human embryonic kidney (HEK293) cells. HEK293 cells were cultured in Dulbecco's modified Eagles media/F12 media (Invitrogen, Cat #041-95750V) containing 10% fetal bovine serum, with added L-glutamine (2 mM; Invitrogen, Cat #25030-024) and non-essential amino acids (5%; Invitrogen, Cat #11140-035). Initially HEK293 cells were transfected with two plasmid vectors for expression of the hCav2.2 α subunit (pCIN5-hCav2.2 which carries a neomycin resistance marker) and the hCav β3 subunit (pCIH-hCav β3 which carries a hygromycin resistance marker). Clonal cell lines were isolated following selection in media supplemented with 0.4 mg ml^−1 Geneticin G418 (Invitrogen, Cat #10131-027) and 0.1 mg ml^−1 hygromycin (Invitrogen, Cat #10687-010). These clonal cell lines were assessed for Cav2.2 α/β3-mediated current expression using the IonWorks planar array electrophysiology technology (described below). A clonal line was identified that gave a reasonable level of functional Cav2.2 α/β3 current expression. This cell line was transfected with a plasmid vector for expression of the human α2δ1 subunit (pCIP-α2δ1 which carries a puromycin resistance marker) and clonal cell lines isolated following selection in media containing 0.62 μg ml^−1 puromycin (Sigma, Cat #P-7255), in addition to 0.4 mg ml^−1 Geneticin G418 and 0.1 mg ml^−1 hygromycin. Several cell lines were identified that gave robust levels of Cav2.2 α/β3/α2δ1-mediated current expression and one of these was selected for compound profiling. Expression of all three subunits within this cell line was continuously maintained by the inclusion of G418 (0.4 mg ml^−1), hygromycin (0.1 mg ml^−1) and puromycin (0.62 μg ml^−1). Cells were maintained at 37° C. in a humidified environment containing 5% CO2 in air. Cells were liberated from the T175 culture flasks for passage and harvesting using TrpLE (Invitrogen, Cat #12604-013).
Cells were grown to 30-60% confluence in T175 flasks and maintained at 30° C. for 24 hrs prior to recording. Cells were lifted by removing the growth media, washing with Ca^2+ free PBS (Invitrogen, Cat #14190-094) and incubating with 3 ml of warmed (37° C.) TrpLE (Invitrogen, Cat #12604-013) for 6 minutes. Lifted cells were suspended in 10 ml of extracellular buffer. Cell suspension was then placed into a 15 ml tube and centrifuged for 2 minutes at 700 rpm. After centrifugation, the supernatant was removed and the cell pellet was resuspended in 4.5 ml of extracellular solution.
Currents were recorded at room temperature (21-23° C.) using the IonWorks planar array electrophysiology technology (Molecular Devices Corp.). Stimulation protocols and data acquisition were carried out using a microcomputer (Dell Pentium 4). In order to determine planar electrode hole resistances (Rp), a 10 mV, 160 ms potential difference was applied across each hole. These measurements were performed before cell addition. After cell addition a seal test was performed prior to antibiotic (amphotericin) circulation to achieve intracellular access. Leak subtraction was conducted in all experiments by applying a 160 ms hyperpolarizing (10 mV) prepulse 200 ms before the test pulses to measure leak conductance. Test pulses stepping from the holding potential (VH) of −90 mV to +10 mV were applied for 20 ms and repeated 10 times at a frequency of 10 Hz. In all experiments, the test pulse protocol was performed in the absence (pre-read) and presence (post-read) of a compound. Pre- and post-reads were separated by a compound addition followed by a 3-3.5 min incubation. […]

T1 sequence (Q00975 whole entry): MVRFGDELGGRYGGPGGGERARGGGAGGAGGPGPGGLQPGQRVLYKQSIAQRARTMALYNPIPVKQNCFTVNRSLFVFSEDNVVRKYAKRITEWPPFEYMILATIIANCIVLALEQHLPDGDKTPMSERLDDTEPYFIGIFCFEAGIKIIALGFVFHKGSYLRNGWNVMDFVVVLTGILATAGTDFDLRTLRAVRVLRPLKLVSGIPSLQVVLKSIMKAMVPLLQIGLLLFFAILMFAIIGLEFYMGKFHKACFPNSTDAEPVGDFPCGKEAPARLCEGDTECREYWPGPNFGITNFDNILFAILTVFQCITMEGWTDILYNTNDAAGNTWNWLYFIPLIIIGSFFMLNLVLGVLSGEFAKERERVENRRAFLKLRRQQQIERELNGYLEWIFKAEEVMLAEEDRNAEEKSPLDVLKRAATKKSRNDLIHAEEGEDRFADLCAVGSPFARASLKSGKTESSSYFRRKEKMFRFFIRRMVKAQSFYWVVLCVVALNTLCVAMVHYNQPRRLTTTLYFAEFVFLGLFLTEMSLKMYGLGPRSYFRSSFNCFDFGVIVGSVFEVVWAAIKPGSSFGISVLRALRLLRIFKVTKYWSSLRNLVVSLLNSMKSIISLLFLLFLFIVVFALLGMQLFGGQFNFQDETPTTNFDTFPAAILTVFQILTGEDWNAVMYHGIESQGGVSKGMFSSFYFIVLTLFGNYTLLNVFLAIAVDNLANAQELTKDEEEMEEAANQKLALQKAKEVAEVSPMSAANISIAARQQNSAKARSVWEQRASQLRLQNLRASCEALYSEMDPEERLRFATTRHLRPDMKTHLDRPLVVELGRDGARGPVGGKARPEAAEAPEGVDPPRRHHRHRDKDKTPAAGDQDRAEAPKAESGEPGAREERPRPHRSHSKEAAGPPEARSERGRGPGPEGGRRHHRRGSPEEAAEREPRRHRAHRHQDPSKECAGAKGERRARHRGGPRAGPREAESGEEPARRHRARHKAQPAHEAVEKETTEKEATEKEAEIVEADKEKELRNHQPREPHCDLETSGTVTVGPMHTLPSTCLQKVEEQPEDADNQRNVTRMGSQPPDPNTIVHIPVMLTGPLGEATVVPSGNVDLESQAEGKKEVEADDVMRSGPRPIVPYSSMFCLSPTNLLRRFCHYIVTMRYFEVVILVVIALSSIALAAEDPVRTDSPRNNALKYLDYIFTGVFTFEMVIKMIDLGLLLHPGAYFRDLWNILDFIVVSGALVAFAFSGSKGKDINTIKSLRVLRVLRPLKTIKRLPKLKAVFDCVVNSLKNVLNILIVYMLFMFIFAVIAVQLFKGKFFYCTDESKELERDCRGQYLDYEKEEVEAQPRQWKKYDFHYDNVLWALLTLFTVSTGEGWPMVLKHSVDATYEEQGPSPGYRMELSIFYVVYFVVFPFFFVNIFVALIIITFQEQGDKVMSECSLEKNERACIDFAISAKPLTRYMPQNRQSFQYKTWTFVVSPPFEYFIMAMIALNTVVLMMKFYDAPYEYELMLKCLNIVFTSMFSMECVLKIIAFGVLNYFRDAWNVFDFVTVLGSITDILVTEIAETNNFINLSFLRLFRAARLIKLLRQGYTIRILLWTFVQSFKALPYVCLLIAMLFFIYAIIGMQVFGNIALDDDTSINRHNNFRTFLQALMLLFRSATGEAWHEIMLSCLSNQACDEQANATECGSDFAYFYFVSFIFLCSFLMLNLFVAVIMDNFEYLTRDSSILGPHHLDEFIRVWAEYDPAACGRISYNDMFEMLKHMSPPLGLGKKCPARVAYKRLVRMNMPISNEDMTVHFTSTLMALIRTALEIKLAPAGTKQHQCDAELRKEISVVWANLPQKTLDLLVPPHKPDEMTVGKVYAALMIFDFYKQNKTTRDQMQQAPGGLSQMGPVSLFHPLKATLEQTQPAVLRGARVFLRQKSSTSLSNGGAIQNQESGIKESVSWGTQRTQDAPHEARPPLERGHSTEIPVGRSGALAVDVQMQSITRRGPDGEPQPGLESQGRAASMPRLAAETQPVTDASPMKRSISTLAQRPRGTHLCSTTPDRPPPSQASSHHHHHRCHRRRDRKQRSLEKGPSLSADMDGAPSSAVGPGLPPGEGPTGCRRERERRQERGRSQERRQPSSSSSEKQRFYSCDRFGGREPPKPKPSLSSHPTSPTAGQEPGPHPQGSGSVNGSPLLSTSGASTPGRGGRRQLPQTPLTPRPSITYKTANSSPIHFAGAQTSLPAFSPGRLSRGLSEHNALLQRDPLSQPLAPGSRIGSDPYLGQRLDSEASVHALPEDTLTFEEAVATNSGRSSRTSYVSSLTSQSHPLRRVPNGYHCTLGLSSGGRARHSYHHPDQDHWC
T1 sequence (P54284 whole entry partner): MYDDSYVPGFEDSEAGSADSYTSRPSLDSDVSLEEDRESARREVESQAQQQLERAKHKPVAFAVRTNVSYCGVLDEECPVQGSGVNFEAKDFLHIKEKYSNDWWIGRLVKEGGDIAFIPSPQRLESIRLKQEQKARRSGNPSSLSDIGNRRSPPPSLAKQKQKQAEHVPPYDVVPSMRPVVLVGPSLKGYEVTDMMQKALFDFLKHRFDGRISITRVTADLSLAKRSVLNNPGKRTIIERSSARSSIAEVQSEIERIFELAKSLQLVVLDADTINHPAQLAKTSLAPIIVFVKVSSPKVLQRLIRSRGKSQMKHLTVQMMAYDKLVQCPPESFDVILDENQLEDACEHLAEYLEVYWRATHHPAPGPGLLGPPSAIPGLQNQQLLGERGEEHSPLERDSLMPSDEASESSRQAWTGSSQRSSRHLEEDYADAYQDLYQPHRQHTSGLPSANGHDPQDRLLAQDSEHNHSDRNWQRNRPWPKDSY
T1 sequence (P54289 25-946 partner limits assumed): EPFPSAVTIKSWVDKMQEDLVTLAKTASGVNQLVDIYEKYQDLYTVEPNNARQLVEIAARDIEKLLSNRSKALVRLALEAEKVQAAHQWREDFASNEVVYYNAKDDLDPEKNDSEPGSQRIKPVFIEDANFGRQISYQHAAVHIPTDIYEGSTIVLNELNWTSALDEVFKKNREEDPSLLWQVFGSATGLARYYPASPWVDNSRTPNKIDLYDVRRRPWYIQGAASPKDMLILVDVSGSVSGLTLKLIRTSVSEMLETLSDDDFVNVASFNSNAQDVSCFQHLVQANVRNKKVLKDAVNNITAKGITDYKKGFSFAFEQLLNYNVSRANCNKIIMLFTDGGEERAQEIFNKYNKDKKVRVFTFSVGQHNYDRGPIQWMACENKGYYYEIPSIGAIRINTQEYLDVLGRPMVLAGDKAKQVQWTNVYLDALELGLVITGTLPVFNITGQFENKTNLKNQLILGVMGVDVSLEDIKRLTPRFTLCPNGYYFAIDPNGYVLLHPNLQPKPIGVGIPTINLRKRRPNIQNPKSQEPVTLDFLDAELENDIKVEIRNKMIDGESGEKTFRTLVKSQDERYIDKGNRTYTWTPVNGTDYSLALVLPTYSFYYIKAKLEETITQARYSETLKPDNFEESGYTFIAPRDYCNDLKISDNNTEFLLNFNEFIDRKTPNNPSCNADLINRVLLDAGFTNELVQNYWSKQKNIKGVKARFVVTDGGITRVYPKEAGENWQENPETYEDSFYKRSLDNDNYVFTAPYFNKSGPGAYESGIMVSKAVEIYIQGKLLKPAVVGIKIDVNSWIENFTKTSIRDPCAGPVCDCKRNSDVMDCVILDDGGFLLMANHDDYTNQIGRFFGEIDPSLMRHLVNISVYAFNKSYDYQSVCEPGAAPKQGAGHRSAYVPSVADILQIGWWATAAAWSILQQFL
T1 sequence (P54289 947-1103 partner limits assumed): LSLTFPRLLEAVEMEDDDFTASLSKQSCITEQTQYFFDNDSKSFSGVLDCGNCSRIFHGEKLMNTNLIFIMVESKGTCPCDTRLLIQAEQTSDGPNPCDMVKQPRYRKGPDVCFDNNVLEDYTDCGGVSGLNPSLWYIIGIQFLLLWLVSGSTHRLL

First: CC(C)N1CCN(Cc2nnnn2-c2cccc(C(F)(F)F)c2)[C@H](C)C1 [Compound 94, (2R)-2-Methyl-4-(1-methylethyl)-1-({1-[3-(trifluoromethyl)phenyl]-1H-tetrazol-5-yl}methyl)piperazine hydrochloride]
Second: CC1C(=O)N(C)CCN1Cc1nnnn1-c1cccc(C(F)(F)F)c1 (stereo not shown) [Compound 33, 1,3-Dimethyl-4-({1-[3-(trifluoromethyl)phenyl]-1H-tetrazol-5-yl}methyl)-2-piperazinone]
The IC50 of the first is lower: ≤ 31.6 µM for the first, 63.1 µM for the second.

`C[C@@H]1COCCN1Cc1nnnn1-c1ccc(OC(F)F)cc1` [Compound 54, (3R)-4-[(1-{4-[(Difluoromethyl)oxy]phenyl}-1H-tetrazol-5-yl)methyl]-3-methylmorpholine hydrochloride] and `C[C@H]1COCCN1Cc1nnnn1-c1ccc(C(F)(F)F)cc1` [Compound 39, (3S)-3-Methyl-4-({1-[4-(trifluoromethyl)phenyl]-1H-tetrazol-5-yl}methyl)morpholine hydrochloride] cannot be ordered by IC50: ≤ 31.6 µM for the first, ≤ 10 µM for the second.

`FC(F)(F)c1cc(-n2nnnc2CN2CCOCC2)ccc1Cl` [Compound 111, 4-({1-[4-chloro-3-(trifluoromethyl)phenyl]-1H-tetrazol-5-yl}methyl)morpholine] and `N#Cc1ccc(-n2nnnc2CN2CCNCC2)cc1C(F)(F)F` [Compound 101, 4-[5-(1-piperazinylmethyl)-1H-tetrazol-1-yl]-2-(trifluoromethyl)benzonitrile] cannot be ordered by IC50: ≤ 3.16 µM for the first, ≤ 10 µM for the second.

`CC(C)N1CCN(Cc2nnnn2-c2ccc(C(F)(F)F)cc2)[C@H](C)C1=O` [Compound 90, (3R)-3-Methyl-1-(1-methylethyl)-4-({1-[4-(trifluoromethyl)phenyl]-1H-tetrazol-5-yl}methyl)-2-piperazinone] and `C[C@@H]1C(=O)N(C)CCN1Cc1nnnn1-c1ccc(C(F)(F)F)cc1` [Compound 89, (3R)-1,3-Dimethyl-4-({1-[4-(trifluoromethyl)phenyl]-1H-tetrazol-5-yl}methyl)-2-piperazinone[]] cannot be ordered by IC50: ≤ 10 µM for the first, ≤ 10 µM for the second.

`CC(C)N1CCN(Cc2nnnn2-c2ccc(C(F)(F)F)cc2)CC1` [Compound 96, 1-(1-Methylethyl)-4-({1-[4-(trifluoromethyl)phenyl]-1H-tetrazol-5-yl}methyl)piperazine hydrochloride] and `CCS(=O)(=O)N1CCN(Cc2nnnn2-c2ccc(C(F)(F)F)cc2)CC1` [Compound 47, 1-(Ethylsulfonyl)-4-({1-[4-(trifluoromethyl)phenyl]-1H-tetrazol-5-yl}methyl)piperazine] cannot be ordered by IC50: ≤ 31.6 µM for the first, ≤ 10 µM for the second.

`CC(C)C(=O)N1CCN(Cc2nnnn2-c2ccc(C#N)c(C(F)(F)F)c2)CC1` [Compound 146, 4-(5-{[4-(2-methylpropanoyl)-1-piperazinyl]methyl}-1H-tetrazol-1-yl)-2-(trifluoromethyl)benzonitrile] and `CC(=O)N1CCN(Cc2nnnn2-c2ccc(C#N)c(C(F)(F)F)c2)CC1` [Compound 102, 4-{5-[(4-acetyl-1-piperazinyl)methyl]-1H-tetrazol-1-yl}-2-(trifluoromethyl)benzonitrile] cannot be ordered by IC50: ≤ 3.16 µM for the first, ≤ 3.16 µM for the second.

`O=C1CCC2CN(Cc3nnnn3-c3ccc(C(F)(F)F)cc3)CCN12` (stereo not shown) [Compound 74, 2-({1-[4-(Trifluoromethyl)phenyl]-1H-tetrazol-5-yl}methyl)hexahydropyrrolo[1,2-a]pyrazin-6(2H)-one] and `CCN1CCN(Cc2nnnn2-c2ccc(C(F)(F)F)cc2)[C@H](C)C1=O` [Compound 52, (3R)-1-Ethyl-3-methyl-4-({1-[4-(trifluoromethyl)phenyl]-1H-tetrazol-5-yl}methyl)-2-piperazinone] cannot be ordered by IC50: ≤ 10 µM for the first, ≤ 31.6 µM for the second.

`CC1(C)COCCN1Cc1nnnn1-c1cccc(C(F)(F)F)c1` [Compound 29, 3,3-Dimethyl-4-({1-[3-(trifluoromethyl)phenyl]-1H-tetrazol-5-yl}methyl)morpholine] and `C[C@@H]1CN(Cc2nnnn2-c2cccc(C(F)(F)F)c2)C[C@H](C)O1` [Compound 3, (cis)-2,6-Dimethyl-4-({1-[3-(trifluoromethyl)phenyl]-1H-tetrazol-5-yl}methyl)morpholine] cannot be ordered by IC50: ≤ 10 µM for the first, ≤ 31.6 µM for the second.

`C[C@@H]1CN(S(C)(=O)=O)C[C@H](C)N1Cc1nnnn1-c1ccc(C#N)c(C(F)(F)F)c1` [Compound 107, 4-(5-{[cis-2,6-Dimethyl-4-(methylsulfonyl)-1-piperazinyl]methyl}-1H-tetrazol-1-yl)-2-(trifluoromethyl)benzonitrile] and `C[C@@H]1CN(Cc2nnnn2-c2ccc(C#N)c(C(F)(F)F)c2)C[C@H](C)O1` [Compound 30, 4-(5-{[cis-2,6-Dimethyl-4-morpholinyl]methyl}-1 H-tetrazol-1-yl)-2-(trifluoromethyl)benzonitrile] cannot be ordered by IC50: ≤ 3.16 µM for the first, ≤ 10 µM for the second.

`CN1C[C@@H]2C[C@H]1CN2Cc1nnnn1-c1ccc(C(F)(F)F)cc1` [Compound 98, (1S,4S)-2-Methyl-5-({1-[4-(trifluoromethyl)phenyl]-1H-tetrazol-5-yl}methyl)-2,5-diazabicyclo[2.2.1]heptane hydrochloride] and `FC(F)(F)c1ccc(-n2nnnc2CCN2CCOCC2)cc1` [Compound 9, 4-(2-{1-[4-(Trifluoromethyl)phenyl]-1H-tetrazol-5-yl}ethyl)morpholine hydrochloride] cannot be ordered by IC50: ≤ 31.6 µM for the first, ≤ 31.6 µM for the second.

`FCC12CCCN1CCN(Cc1nnnn1-c1ccc(C(F)(F)F)cc1)C2` (stereo not shown) [Compound 77, 8a-(Fluoromethyl)-2-({1-[4-(trifluoromethyl)phenyl]-1H-tetrazol-5-yl}methyl)octahydropyrrolo[1,2-a]pyrazine] and `CS(=O)(=O)N1CCN(Cc2nnnn2-c2cccc(C(F)(F)F)c2)CC1` [Compound 72, 1-(Methylsulfonyl)-4-({1-[3-(trifluoromethyl)phenyl]-1H-tetrazol-5-yl}methyl)piperazine] cannot be ordered by IC50: ≤ 31.6 µM for the first, ≤ 10 µM for the second.

`N#Cc1ccc(-n2nnnc2CN2[C@@H]3CC[C@H]2COC3)cc1C(F)(F)F` [Compound 103, 4-[5-(3-oxa-8-azabicyclo[3.2.1]oct-8-ylmethyl)-1H-tetrazol-1-yl]-2-(trifluoromethyl)benzonitrile hydrochloride] and `C[C@@H]1COCCN1Cc1nnnn1-c1ccc(C#N)c(C(F)(F)F)c1` [Compound 41, 4-(5-{[(3R)-3-Methyl-4-morpholinyl]methyl}-1H-tetrazol-1-yl)-2-(trifluoromethyl)benzonitrile] cannot be ordered by IC50: ≤ 10 µM for the first, ≤ 3.16 µM for the second.

`O=S1(=O)CCC2CN(Cc3nnnn3-c3cccc(C(F)(F)F)c3)CCN21` (stereo not shown) [Compound 79, 5-({1-[3-(Trifluoromethyl)phenyl]-1H-tetrazol-5-yl}methyl)hexahydro-2H-isothiazolo[2,3-a]pyrazine 1,1-dioxide] and `CC(C)N1CCC2(CCN(Cc3nnnn3-c3ccc(C#N)c(C(F)(F)F)c3)CC2)C1` [Compound 147, 4-(5-{[2-(1-methylethyl)-2,8-diazaspiro[4.5]dec-8-yl]methyl}-1H-tetrazol-1-yl)-2-(trifluoromethyl)benzonitrile dihydrochloride] cannot be ordered by IC50: ≤ 31.6 µM for the first, ≤ 3.16 µM for the second.

`C[C@@H]1COCCN1Cc1nnnn1-c1ccc(C(F)(F)F)cn1` [Compound 42, (3R)-3-Methyl-4-({1-[5-(trifluoromethyl)-2-pyridinyl]-1H-tetrazol-5-yl}methyl)morpholine] and `CCS(=O)(=O)N1CCN(Cc2nnnn2-c2ccc(C#N)cc2)CC1` [Compound 118, 4-(5-{[4-(ethylsulfonyl)-1-piperazinyl]methyl}-1H-tetrazol-1-yl)benzonitrile] cannot be ordered by IC50: ≤ 31.6 µM for the first, ≤ 31.6 µM for the second.

— US9750719B2, “Tetrazole compounds as calcium channel blockers” (CONVERGENCE PHARMACEUTICALS LIMITED, priority 2010, dated 2017)
